Assays:
haploid mother plant = assay: Tiller induction in doubled haploid maize (Example 7); format: in vivo
Method: A haploid mother plant will be subjected to doubling treatment and thereafter planted in a pot, the soil surrounding the roots drenched with 100 mL of 2.5% of paclobutrazol, and then tended standard maize greenhouse growing conditions for several days. […] One of the resulting daughter tiller plants can be separated from the mother plant, transplanted into a separate pot, and grown via standard greenhouse management procedures to eventually recover a daughter plant with normal haploid morphology.

[1] = test system: eleven corn inbred germplasm; assay: Chemistry treatment of eleven corn inbred germplasm at V3 or V8 (Example 12); format: in vivo; conditions: for Avg Kernels from Main Stem / Avg Total Kernels Per Plant: auto-self
From the text: Seeds for eleven corn inbred germplasm was planted in six-packs and grown in greenhouses under standard conditions as outlined in Example 1. At thirteen days after germination the seedlings for the eleven different germplasm (20 plants per germplasm) were transplanted into standard pots. […]

[2] = pedigree A, 3HV: 14DAP, 4 mg/plant, 2% 50 mL
[3] = pedigree A, 3LV: 14DAP, 4 mg/plant, 6.25% 16 mL
[4] = pedigree A, 8HV: 28DAP, 8 mg/plant, 2% 100 mL
[5] = pedigree A, 8LV: 28DAP, 8 mg/plant, 13% 16 mL
[6] = pedigree B, 3HV: 14DAP, 6 mg/plant, 3% 50 mL
[7] = pedigree B, 3LV: 14DAP, 6 mg/plant, 9.38% 16 mL
[8] = pedigree B, 8HV: 28DAP, 16 mg/plant, 4% 100 mL
[9] = pedigree B, 8LV: 28DAP, 16 mg/plant, 25% 16 mL
[10] = pedigree C, 3LV: 14DAP, 6 mg/plant, 9.38% 16 mL
[11] = pedigree C, 8HV: 28DAP, 16 mg/plant, 4% 100 mL
[12] = pedigree C, 8LV: 28DAP, 16 mg/plant, 25% 16 mL
[13] = pedigree D, 3HV: 14DAP, 6 mg/plant, 3% 50 mL
[14] = pedigree D, 3LV: 14DAP, 6 mg/plant, 9.38% 16 mL
[15] = pedigree D, 8HV: 28DAP, 16 mg/plant, 4% 100 mL
[16] = pedigree D, 8LV: 28DAP, 16 mg/plant, 25% 16 mL
[17] = pedigree E, 3HV: 14DAP, 6 mg/plant, 3% 50 mL
[18] = pedigree E, 3LV: 14DAP, 6 mg/plant, 9.38% 16 mL
[19] = pedigree E, 8HV: 28DAP, 16 mg/plant, 4% 100 mL
[20] = pedigree E, 8LV: 28DAP, 16 mg/plant, 25% 16 mL
[21] = pedigree F, 3HV: 14DAP, 6 mg/plant, 3% 50 mL
[22] = pedigree F, 3LV: 14DAP, 6 mg/plant, 9.38% 16 mL
[23] = pedigree F, 8HV: 28DAP, 16 mg/plant, 4% 100 mL
[24] = pedigree F, 8LV: 28DAP, 16 mg/plant, 25% 16 mL
[25] = pedigree G, 3HV: 14DAP, 6 mg/plant, 3% 50 mL
[26] = pedigree G, 3LV: 14DAP, 6 mg/plant, 9.38% 16 mL

CC(C)(C)[C@@H](O)[C@@H](Cc1ccc(Cl)cc1)n1cncn1 (relative stereo) [PBZ, (±)-(R*, R*)-beta-((4-chlorophenyl)methyl)-alpha-(1,1,-dimethylethyl)-1H-1,2,4,-triazole-1-ethanol]
DH1 seeds yielded by transplanted daughter tiller plant when selfed (haploid mother plant; 100 mL of 2.5% paclobutrazol): several dozen | effect on mother plant (haploid mother plant; 100 mL of 2.5% paclobutrazol soil drench after doubling treatment): shortened internodes and increased tiller production | kernel number per plant ([1]; diverse germplasm treated at V3 (14DAP) or V8 (28DAP), FIG. 11): average increase in kernel number per plant | decrease in height, on average ([1]; every germplasm tested, FIG. 10): 30-50% | Avg Kernels from Main Stem [1, 2]: 330.50 | Avg Total Kernels Per Plant [1, 2]: 351.00 | Avg Kernels from Main Stem [1, 3]: 352.25 | Avg Total Kernels Per Plant [1, 3]: 515.75 | Avg Kernels from Main Stem [1, 4]: 337.00 | Avg Total Kernels Per Plant [1, 4]: 345.75 | Avg Kernels from Main Stem [1, 5]: 366.50 | Avg Total Kernels Per Plant [1, 5]: 413.00 | Avg Kernels from Main Stem [1, 6]: 204.00 | Avg Total Kernels Per Plant [1, 6]: 215.50 | Avg Kernels from Main Stem [1, 7]: 260.25 | Avg Total Kernels Per Plant [1, 7]: 291.25 | Avg Kernels from Main Stem [1, 8]: 567.00 | Avg Total Kernels Per Plant [1, 8]: 567.25 | Avg Kernels from Main Stem [1, 9]: 427.00 | Avg Total Kernels Per Plant [1, 9]: 432.75 | Avg Kernels from Main Stem [1, 10]: 291.50 | Avg Total Kernels Per Plant [1, 10]: 611.25 | Avg Kernels from Main Stem [1, 11]: 148.00 | Avg Total Kernels Per Plant [1, 11]: 255.25 | Avg Kernels from Main Stem [1, 12]: 325.75 | Avg Total Kernels Per Plant [1, 12]: 513.25 | Avg Kernels from Main Stem [1, 13]: 616.75 | Avg Total Kernels Per Plant [1, 13]: 766.25 | Avg Kernels from Main Stem [1, 14]: 631.25 | Avg Total Kernels Per Plant [1, 14]: 839.25 | Avg Kernels from Main Stem [1, 15]: 581.75 | Avg Total Kernels Per Plant [1, 15]: 646.75 | Avg Kernels from Main Stem [1, 16]: 727.75 | Avg Total Kernels Per Plant [1, 16]: 745.50 | Avg Kernels from Main Stem [1, 17]: 334.50 | Avg Total Kernels Per Plant [1, 17]: 405.25 | Avg Kernels from Main Stem [1, 18]: 291.25 | Avg Total Kernels Per Plant [1, 18]: 422.50 | Avg Kernels from Main Stem [1, 19]: 532.50 | Avg Total Kernels Per Plant [1, 19]: 678.25 | Avg Kernels from Main Stem [1, 20]: 583.25 | Avg Total Kernels Per Plant [1, 20]: 772.75 | Avg Kernels from Main Stem [1, 21]: 414.75 | Avg Total Kernels Per Plant [1, 21]: 1078.75 | Avg Kernels from Main Stem [1, 22]: 392.00 | Avg Total Kernels Per Plant [1, 22]: 777.75 | Avg Kernels from Main Stem [1, 23]: 301.00 | Avg Total Kernels Per Plant [1, 23]: 442.25 | Avg Kernels from Main Stem [1, 24]: 461.00 | Avg Total Kernels Per Plant [1, 24]: 661.00 | Avg Kernels from Main Stem [1, 25]: 381.50 | Avg Total Kernels Per Plant [1, 25]: 905.50 | Avg Kernels from Main Stem [1, 26]: 485.50 | Avg Total Kernels Per Plant [1, 26]: 1033.50
